The source of these data is patent US20060122181A1, “Heteroaromatic pentacyclic compound and medicinal use thereof” (Japan Tobacco Inc., priority 2003, published 2006).

For orientation: melting point means the temperature, or range, at which the solid turns liquid. `CCCC(CCC)c1ccc(N(Cc2ccc(-c3csc(COc4cncc(C(=O)O)c4)n3)cc2)C(C)C)cc1.[Na+]` [Example 1-68]: the melting point was 185 °C (dec.).

Turning to `CCC(CC)CN(Cc1ccc(-c2csc(COc3cncc(C(=O)O)c3)n2)cc1)c1ccc(C(C)C)cc1` [Example 1-74], the melting point was found to be 181 °C.

For the compound `CCCC(CCC)c1ccc(OCc2ccc(-c3csc(COc4ncccc4C(=O)O)n3)cc2)cc1` [Example 1-76], the melting point turned out to be 154.5 °C.

In the case of `CCCC(CCC)c1ccc(OCc2ccc(-c3csc(COc4cccnc4C(=O)O)n3)cc2)cc1` [Example 1-82], the melting point is 138.5 °C (dec.).

In turn, `CCC(CC)c1ccc(N(Cc2ccc(-c3csc(COc4cncc(C(=O)OC)c4)n3)cc2)C(C)C)cc1` [Example 1-89] came in with a melting point of 111 to 113 °C.

The compound `CCC(CC)c1ccc(N(Cc2ccc(-c3csc(COc4cc(C(=O)O)ccc4N)n3)cc2)C(C)C)cc1` [Example 1-90] returned a melting point of 179 to 181 °C.

In turn, `CCC(CC)c1ccc(N(Cc2ccc(-c3csc(COc4cccc(C(=O)O)c4)n3)cc2)C(C)C)cc1` [Example 1-91] displayed a melting point of 165 to 167 °C.

In turn, `CCC(CC)c1ccc(N(Cc2ccc(-c3csc(CNc4cccc(C(=O)O)c4)n3)cc2)C(C)C)cc1` [Example 1-92] displayed a melting point of 159 to 160 °C.

`CCC(CC)c1ccc(N(Cc2ccc(-c3csc(COc4cc(C(=O)O)ccc4[N+](=O)[O-])n3)cc2)C(C)C)cc1` [Example 1-93] registered a melting point of 198 to 200 °C.

In turn, `CCCC(CCC)c1ccc(OCc2ccc(-c3csc(CN(CC(=O)O)CC(=O)Nc4ccccc4)n3)cc2)cc1` [Example 1-95] yielded a melting point of 149.5 °C.

Turning to `CCCC(CCC)c1ccc(OCc2ccc(-c3csc(CN(CC(=O)O)CC(=O)Nc4cccnc4)n3)cc2)cc1` [Example 1-96], the melting point came to 162.5 °C.

The compound `CCCC(CCC)c1ccc(OCc2ccc(-c3csc(CN(CC(=O)O)CC(=O)Nc4ccc(N(C)C)cc4)n3)cc2)cc1` [Example 1-97] had a melting point of 192.5 °C.

`CCCC(CCC)c1ccc(OCc2ccc(-c3csc(CN(CC(=O)O)CC(=O)Nc4ccc(OC)cc4)n3)cc2)cc1` [Example 1-98] registered a melting point of 176.5 °C.

As to `CCCC(CCC)c1ccc(OCc2ccc(-c3csc(CN(CC(=O)O)CC(=O)N(c4ccccc4)C(C)C)n3)cc2)cc1` [Example 1-99], the melting point was determined as 115.5 °C.

`CCCC(CCC)c1ccc(OCc2ccc(-c3csc(CN(CC(=O)O)CC(=O)Nc4ccccn4)n3)cc2)cc1` [Example 1-100] displayed a melting point of 133.5 °C.

As to `CCCC(CCC)c1ccc(N(Cc2ccc(-c3csc(COc4cc(C(=O)O)ccc4NC(C)=O)n3)cc2)C(C)C)cc1` [Example 1-108], the melting point is 129 to 131 °C.

For the compound `CCCC(CCC)c1ccc(N(Cc2ccc(-c3csc(COc4cc(C(=O)O)ccc4NC(=O)C(C)C)n3)cc2)C(C)C)cc1` [Example 1-113], the melting point was 166 to 168 °C.

`CCCC(CCC)c1ccc(N(Cc2ccc(-c3csc(CN(CC(=O)O)S(=O)(=O)N(C)c4ccccc4)n3)cc2)C(C)C)cc1` [Example 1-116] gave a melting point of 146 to 148 °C.

`CCC(CC)c1ccc(N(Cc2ccc(-c3csc(CN(C)c4ccc(OCC(=O)O)c(C(=O)O)c4)n3)cc2)C(C)C)cc1` [Example 1-124]: the melting point was 124 °C.

Compound `CCCC(CCC)c1ccc(OCc2ccc(-c3csc(CN(C)c4ccc(OCC(=O)O)c(C(=O)O)c4)n3)cc2)cc1` [Example 1-125] had a melting point of 122 °C.

Regarding `CCCC(CCC)c1ccc(N(Cc2ccc(-c3csc(COc4cc(C(=O)O)ccc4NC(=O)CNC)n3)cc2)C(C)C)cc1` [Example 1-126], the melting point is 210 to 212 °C.

For the compound `CCCC(CCC)c1ccc(OCc2ccc(-c3csc(CN(CC(=O)O)C(=O)COc4ccccc4)n3)cc2)cc1` [Example 1-129], the melting point was 143 to 145 °C.

In the case of `CCCC(CCC)c1ccc(OCc2ccc(-c3csc(CN(CC(=O)O)C(=O)COc4ccc(C)cc4)n3)cc2)cc1` [Example 1-130], the melting point was 170 to 172 °C.

The compound `CCCC(CCC)c1ccc(N(Cc2ccc(-c3csc(CN(CC(=O)O)C(=O)COCc4ccccc4)n3)cc2)C(C)C)cc1` [Example 1-134] had a melting point of 158 to 160 °C.

In turn, `CCCC(CCC)c1ccc(OCc2ccc(-c3csc(CN(CC(=O)O)C(=O)COc4ccc(C(C)C)cc4)n3)cc2)cc1` [Example 1-135] showed a melting point of 192 to 194 °C.

`CCCC(CCC)c1ccc(N(Cc2ccc3nc(-c4csc(CN(CC(=O)O)Cc5nc(C(C)(C)C)cs5)n4)oc3c2)C(C)C)cc1` [Example 1-138] yielded a melting point of 98 to 100 °C.

`CCCC(CCC)c1ccc(N(Cc2ccc3nc(-c4csc(CN(CC(=O)O)Cc5nc6ccccc6[nH]5)n4)oc3c2)C(C)C)cc1` [Example 1-139] had a melting point of 127 to 133 °C.

In turn, `CCCC(CCC)c1ccc(N(Cc2ccc3nc(-c4csc(COc5cncc(C(=O)O)c5)n4)oc3c2)C(C)C)cc1` [Example 1-140] returned a melting point of 135 to 138 °C.

Consider `CCCC(CCC)c1ccc(OCc2ccc(-c3csc(CN(C)c4cccc(C(=O)O)n4)n3)cc2)cc1` [Example 1-143], for which the melting point lay within 123 to 125 °C.

In turn, `CCCC(CCC)c1ccc(N(Cc2ccc(-c3csc(CN(CC(=O)O)Cc4nc(C)c(C)s4)n3)cc2)C(C)C)cc1` [Example 1-146] came in with a melting point of 156 to 157 °C.

Compound `CCCC(CC)c1ccc(N(Cc2ccc(-c3csc(CN4CCC(C(=O)O)CC4)n3)cc2)C(C)C)cc1` (stereo not shown) [Example 1-152] yielded a melting point of 149 to 151 °C.

As for `CCC(CC)c1ccc(N(Cc2ccc(-c3csc(CN4CCN(c5ccc(C(=O)O)cc5)CC4)n3)cc2)C(C)C)cc1` [Example 1-154], the melting point was in the range of 232 to 234 °C.

With `CCCC(CCC)c1ccc2c(c1)nc(-c1csc(COc3ccc(C(=O)O)cc3)n1)n2Cc1cccc(C)n1` [Example 1-159], the melting point was in the range of 113 to 116 °C.

In turn, `CCCC(CCC)c1ccc(OCc2ccc(-c3csc(CNC(=O)c4ccc(C(=O)O)cn4)n3)cc2)cc1` [Example 1-163] came in with a melting point of 164 to 166 °C.

Take `CCCC(CCC)c1ccc(COc2ccc(-c3csc(CN4CCC(c5ccccc5C(=O)O)CC4)n3)cc2)cc1` [Example 1-164]: the melting point fell in the range of 170 to 172 °C.

Take `CCCC(CCC)c1ccc(Cn2cc(-c3csc(CN4CCC(C(=O)O)CC4)n3)c3ccccc32)cc1` [Example 1-165]: the melting point was 111 to 115 °C.

In turn, `CCCC(CCC)c1ccc(Cn2c(-c3csc(CN4CCc5ccc(C(=O)O)cc5C4)n3)nc3ccccc32)cc1` [Example 1-169] came in with a melting point of 189.2 to 190.3 °C.

Regarding `CCCC(CCC)c1ccc(Cn2c(-c3csc(CN4CCN(c5cccc(C(=O)O)c5)CC4)n3)nc3ccccc32)cc1` [Example 1-170], the melting point was in the range of 179.8 to 181.2 °C.

`CCCC(CCC)c1ccc(Cn2c(-c3csc(CN4CCC(c5ccc(C(=O)O)cc5)CC4)n3)nc3ccccc32)cc1` [Example 1-171] registered a melting point of 208.5 to 209.8 °C.

In turn, `O=C(O)c1cccc(C2CCN(Cc3nc(-c4ccc(OCc5ccc(Cl)c(Cl)c5)cc4)cs3)CC2)c1` [Example 1-173] came in with a melting point of 197 to 199 °C.

`O=C(O)c1cccc(C2CCN(Cc3nc(-c4ccc(OCc5cc(C(F)(F)F)cc(C(F)(F)F)c5)cc4)cs3)CC2)c1` [Example 1-174] gave a melting point of 222 to 228 °C.

As for `CCCCOc1ccc(COc2ccc(-c3csc(CN4CCC(c5cccc(C(=O)O)c5)CC4)n3)cc2)cc1` [Example 1-175], the melting point was 222 to 225 °C.

`CCCC(CCC)c1ccc(OCc2ccc(-c3csc(Cn4nc(C)cc4C(=O)O)n3)cc2)cc1` [Example 1-176] registered a melting point of 141 to 143 °C.

Compound `CCCC(CCC)c1ccc(OCc2ccc(-c3csc(Cn4nc(C(=O)O)cc4C)n3)cc2)cc1` [Example 1-177] came in with a melting point of 185 to 194 °C.

Regarding `CCCC(CCC)c1ccc(OCc2ccc(-c3csc(Cn4nc(C(C)(C)C)cc4C(=O)O)n3)cc2)cc1` [Example 1-179], the melting point was in the range of 123 to 125 °C.

In the case of `CCCC(CCC)c1ccc(Cn2cc(-c3csc(CN4C[C@H](O)C[C@H]4C(=O)O)n3)c3ccccc32)cc1` [Example 1-180], the melting point lay in the range of 105 to 107 °C.

In turn, `CCCC(CCC)c1ccc(Cn2c(-c3ccccc3)c(-c3csc(CN4CCC(C(=O)O)CC4)n3)c3ccccc32)cc1` [Example 1-183] returned a melting point of 101 to 103 °C.

Turning to `Cc1ccc(COc2ccc(-c3csc(CN4CCC(c5cccc(C(=O)O)c5)CC4)n3)cc2)cc1[N+](=O)[O-]` [Example 1-184], the melting point fell in the range of 205 to 210 °C.

`CC(C)c1ccc(Cn2c(-c3csc(CN4CCc5ccc(C(=O)O)cc5C4)n3)nc3ccc(N4CCOCC4)cc32)cc1` [Example 1-185]: the melting point lay in the range of 141 to 143.2 °C.

In turn, `CC(C)c1ccc(Cn2c(-c3csc(CN4CCN(c5cccc(C(=O)O)c5)CC4)n3)nc3ccc(N4CCOCC4)cc32)cc1` [Example 1-186] registered a melting point of 128.5 to 131.5 °C.

In the case of `CCCC(CCC)c1ccc(COc2ccc(-c3csc(COc4ccc(C(=O)O)cc4)n3)cc2)cc1` [Example 3-2], the melting point lay within 204 to 207 °C.

`CCCC(CCC)c1ccc(COc2ccc(-c3csc(CSc4ccc(C(=O)O)cc4)n3)cc2)cc1` [Example 3-3] came in with a melting point of 117 to 118 °C.

In turn, `CCCC(CCC)c1ccc(COc2ccc(C)cc2-c2csc(CN(C)S(=O)(=O)c3ccc(C(=O)O)cc3)n2)cc1` [Example 3-6] registered a melting point of 130 to 132 °C.

On to `CCCC(CCC)c1ccc(COc2ccc(C)cc2-c2csc(CN(C)c3ccc(C(=O)O)cc3)n2)cc1` [Example 3-7], for which the melting point is 184 to 187 °C.

For `Cc1ccc(OCc2ccc(C(F)(F)F)cc2)c(-c2csc(CN(CC(=O)O)Cc3ccccc3)n2)c1` [Example 3-8], the melting point was in the range of 168 to 170 °C.

Compound `CCC(CC)c1ccc(COc2ccc(-c3csc(CN(CC(=O)O)Cc4ccccc4)n3)cc2)cc1` [Example 3-11] showed a melting point of 144 to 146 °C.

For `CC(C)Cc1ccc(COc2ccc(C(C)(C)C)cc2-c2csc(CN(CC(=O)O)Cc3ccccc3)n2)cc1` [Example 3-12], the melting point was in the range of 155 to 157 °C.

As to `CCCC(CCC)c1ccc(COc2ccc(Cl)cc2-c2csc(CN(CC(=O)O)Cc3ccccc3)n2)cc1` [Example 3-13], the melting point lay in the range of 130 to 131 °C.
